Values after ≈ are worked out from the molar mass of the structure shown.
Columns and labels:
Assay type in all cases: cell-based
[1] = system: gentamicin, streptmycin, vancomycin resistant Enterococcus faecalis (ATCC 51299); experiment: microbe, parasite or virus in culture; conditions: for MIC: Enterococcus faecalis, ATCC51299, read-out: MIC VREF; for MIC VREF: Enterococcus faecalis ATCC51299, vancomycin resistance
Description: (§1) Evaluation of vancomycin analogs is performed using in vitro susceptibility tests and a time-kill assay. [NCCL Standard, 1993] In susceptibility tests, five strains of bacteria, two of the most important: Staphylococcus aureus and Enterococcus faecalis (both susceptible and resistant strains), and Bacillus cereus are chosen and bacteria viability remaining in each well is evaluated using a colorimetric assay based on the tetrazolium salt 3-(4,5-dimethyl-2-thiazolyl)-2,5-diphenyl-2H tetrazolium bromide (MTT) and minimum inhibitory concentration (MIC) values are determined as μg/mL. [Mosmann, T. (1983); Damour, O., et al. (1992); Mikami, Y., et al. (1994)] This assay gives susceptibility information quickly, efficiently, and clearly.
(§2) All strains [Bacillus cereus (ATCC® 11778), Staphylococcus aureus (ATCC® 29213), Methicillin resistant Staphylococcus aureus (ATCC® 33591), Enterococcus faecalis (ATCC® 29212), and gentamicin, streptmycin, vancomycin resistant Enterococcus faecalis (ATCC® 51299), are purchased from REMEL (Lenexa, Kans.).
(§3) MICs are determined by the microdilution method using 96-well microplates. Samples are suspended with Cation Adjusted (20 to 25 mg of Ca^2+/mL and 10 to […] of Mg^2+) Mueller-Hinton broth (Difco Laboratories, Detroit, Mich.) and are two-fold diluted from 5 μg/mL to […] on microplates (12 step dilution). To each well, which contained 100 μL of cell suspension (10^6 CFU/mL), 100 μL of antibiotic solution is added and the plates are incubated at 37° C. for 24 h. 50 μL of MTT solution (1 mg/mL) is added to each well, then the plates are incubated under the same conditions (incubation time; 30 min for Bacillus cereus, Staphylococcus aureus, and Methicillin resistant Staphylococcus aureus; 2 hours for Enterococcus faecalis and Gentamicin, Streptmycin, Vancomycin Enterococcus faecalis). MTT is a yellow tetrazolium salt that is reduced by mitochondrial enzymes in viable cells to an insoluble blue formazan product. MIC values are evaluated by observing the lowest drug concentration to inhibit bacteria growth.

[2] = system: Bacillus cereus (ATCC 11778); experiment: MIC susceptibility test, microdilution with MTT readout; conditions: for MIC: Bacillus cereus, ATCC11778, read-out: MIC BC; for MIC BC: Bacillus ceres ATCC11778
Description: as §1, §2, §3

[3] = system: Staphylococcus aureus (ATCC 29213); experiment: as above; conditions: Staphylococcus aureus ATCC29213; for MIC: read-out: MIC SA
Description: as §1, §2, §3

[4] = system: Methicillin resistant Staphylococcus aureus (ATCC 33591); experiment: as above; conditions: Staphylococcus aureus ATCC3359, Methicillin resistance; for MIC: ATCC 3359 / ATCC 33591 / MRSA, read-out: MIC MRSA
Description: as §1, §2, §3

[5] = system: Enterococcus faecalis (ATCC 29212); experiment: as above; conditions: Enterococcus faecalis ATCC29212; for MIC: read-out: MIC EF
Description: as §1, §2, §3

[6] = system: Enterococcus faecium CL5137, VanA; experiment: MIC susceptibility test; conditions: Enterococcus faecium CL5137, VanA; for MIC: read-out: MIC CL5137
[7] = system: Enterococcus faecalis CL5244, VanB; experiment: MIC susceptibility test; conditions: Enterococcus faecalis CL5244, VanB; for MIC: read-out: MIC CL5244
Description: as §1, §3

Compound | MIC [1] | MIC [2] | MIC [3] | MIC [4] | MIC [5] | MIC [6] | MIC [7] | MIC VREF [1] | MIC BC [2] | MIC SA [3] | MIC MRSA [4] | MIC EF [5] | MIC CL5137 [6] | MIC CL5244 [7]
CN[C@@H](CC(C)C)C(=O)N[C@H]1C(=O)N[C@@H](CC(N)=O)C(=O)N[C@H]2C(=O)NC3C(=O)N[C@H](C(=O)N[C@@H](C(=O)O)c4cc(O)cc(O)c4-c4cc3ccc4O)[C@H](O)c3ccc(c(Cl)c3)Oc3cc2cc(c3OC2OC(CSc3nc4cc(Cl)ccc4s3)C(O)C(O)C2OC2CC(C)(N)C(O)C(C)O2)Oc2ccc(cc2Cl)[C@H]1O (stereo partly drawn) [LXVI, Glucose-C6-2-thio-5-chlorobenzothiazole Vancomycin] | 0.32 µg/mL (≈ 0.196 µM) | 0.16 µg/mL (≈ 0.098 µM) | 0.63 µg/mL (≈ 0.386 µM) | 1.3 µg/mL (≈ 0.796 µM) | 0.24 µg/mL (≈ 0.147 µM) | 50 µg/mL (≈ 30.6 µM) | 0.4 µg/mL (≈ 0.245 µM) | – | – | – | – | – | – | –
CN[C@@H](CC(C)C)C(=O)N[C@H]1C(=O)N[C@@H](CC(N)=O)C(=O)N[C@H]2C(=O)NC3C(=O)N[C@H](C(=O)N[C@@H](C(=O)O)c4cc(O)cc(O)c4-c4cc3ccc4O)[C@H](O)c3ccc(c(Cl)c3)Oc3cc2cc(c3OC2OC(CSc3nnnn3-c3ccc(O)cc3)C(O)C(O)C2OC2CC(C)(N)C(O)C(C)O2)Oc2ccc(cc2Cl)[C@H]1O (stereo partly drawn) [LXVIII, Glucose-C6-5-thio-1-(4-hydroxyphenyl)-1H-tetrazole Vancomycin] | > 5 µg/mL | 1.3 µg/mL (≈ 0.8 µM) | 2.5 µg/mL (≈ 1.54 µM) | 2.5 µg/mL (≈ 1.54 µM) | 2.5 µg/mL (≈ 1.54 µM) | > 50 µg/mL | 13 µg/mL (≈ 8 µM) | – | – | – | – | – | – | –
CNC(CC(C)C)C(=O)NC1C(=O)NC(CC(N)=O)C(=O)NC2C(=O)NC3C(=O)NC(C(=O)NC(C(=O)O)c4cc(O)cc(O)c4-c4cc3ccc4O)C(O)c3ccc(c(Cl)c3)Oc3cc2cc(c3OC2OC(CI)C(O)C(O)C2OC2CC(C)(N)C(O)C(C)O2)Oc2ccc(cc2Cl)C1O (stereo not drawn) [LXX, Glucose-C6-iodo Vancomycin] | – | – | – | – | – | – | – | 1.9 µg/mL (≈ 1.22 µM) | 0.63 µg/mL (≈ 0.404 µM) | 0.63 µg/mL (≈ 0.404 µM) | 1.3 µg/mL (≈ 0.834 µM) | 0.63 µg/mL (≈ 0.404 µM) | 50< μg/mL | 6.3 µg/mL (≈ 4.04 µM)
CCCCCCCCCCNC1(C)CC(OC2C(Oc3c4cc5cc3Oc3ccc(cc3Cl)C(O)C3NC(=O)C(NC(=O)C5NC(=O)C(CC(N)=O)NC(=O)C(NC(=O)C(CC(C)C)NC)C(O)c5ccc(c(Cl)c5)O4)c4ccc(O)c(c4)-c4c(O)cc(O)cc4C(C(=O)O)NC3=O)OC(CSc3nc(N)n[nH]3)C(O)C2O)OC(C)C1O (stereo not drawn) [LXXII, Vancosamine-N-decyl-glucose-C6-S-3-amino-5-mercapto-1,2,4-triazole Vancomycin] | – | – | – | – | – | – | – | 0.32 µg/mL (≈ 0.19 µM) | 2.5 µg/mL (≈ 1.48 µM) | 3.8 µg/mL (≈ 2.25 µM) | 1.9 µg/mL (≈ 1.13 µM) | 0.32 µg/mL (≈ 0.19 µM) | 6.3 µg/mL (≈ 3.73 µM) | 0.3 µg/mL (≈ 0.178 µM)
CN[C@H](CC(C)C)C(=O)N[C@H]1C(=O)N[C@@H](CC(N)=O)C(=O)N[C@H]2C(=O)N[C@H]3C(=O)N[C@H](C(=O)N[C@H](C(=O)O)c4cc(O)cc(O)c4-c4cc3ccc4O)[C@H](O)c3ccc(c(Cl)c3)Oc3cc2cc(c3OC2OC(CSc3nc(N)n[nH]3)C(O)C(O)C2OC2CC(C)(NCc3ccc(-c4ccc(Cl)cc4)cc3)C(O)C(C)O2)Oc2ccc(cc2Cl)[C@H]1O (stereo partly drawn) [LXXIII, Vancosamine-N-4-(4-chlorophenyl)benzyl, Glucose-C6-S-3-amino-5-mercapto-1,2,4-triazole Vancomycin] | 0.08 µg/mL (≈ 0.0458 µM) | 0.48 µg/mL (≈ 0.275 µM) | 1.9 µg/mL (≈ 1.09 µM) | 1 µg/mL (≈ 0.572 µM) | 0.16 µg/mL (≈ 0.0915 µM) | 3.2 µg/mL (≈ 1.83 µM) | 0.2 µg/mL (≈ 0.114 µM) | – | – | – | – | – | – | –
CNC(CC(C)C)C(=O)NC1C(=O)NC(CC(N)=O)C(=O)NC2C(=O)NC3C(=O)NC(C(=O)NC(C(=O)O)c4cc(O)cc(O)c4-c4cc3ccc4O)C(O)c3ccc(c(Cl)c3)Oc3cc2cc(c3OC2OC(CI)C(O)C(O)C2OC2CC(C)(NCc3ccc(-c4ccc(Cl)cc4)cc3)C(O)C(C)O2)Oc2ccc(cc2Cl)C1O (stereo not drawn) [LXXIIa, Vancosamine-N-4-(4-chlorophenyl)benzyl-glucose-C6-iodo vancomycin] | – | – | – | – | – | – | – | 0.32 µg/mL (≈ 0.182 µM) | 0.32 µg/mL (≈ 0.182 µM) | 0.48 µg/mL (≈ 0.273 µM) | 0.63 µg/mL (≈ 0.358 µM) | 0.16 µg/mL (≈ 0.0909 µM) | 13 µg/mL (≈ 7.39 µM) | 0.3 µg/mL (≈ 0.17 µM)
